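GI50: concentration for 50% inhibition of growth. The concentration for full growth arrest is given as TGI.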
Legend:
Test in all cases: NCI tumour cell line growth inhibition, 384-well format
786-0 renal = system: 786-0 renal
A498 renal = system: A498 renal
A549 NSCLC = system: A549 NSCLC
ACHN renal = system: ACHN renal
BT-549 breast = system: BT-549 breast
CAKI-1 renal = system: CAKI-1 renal
CCRF-CEM leukemia = system: CCRF-CEM leukemia
COLO 205 colon = system: COLO 205 colon
DU-145 prostate = system: DU-145 prostate
EKVX NSCLC = system: EKVX NSCLC
HCC-2998 colon = system: HCC-2998 colon
HCT-116 colon = system: HCT-116 colon
HCT-15 colon = system: HCT-15 colon
HL-60(TB) leukemia = system: HL-60(TB) leukemia
HOP-62 NSCLC = system: HOP-62 NSCLC
HOP-92 NSCLC = system: HOP-92 NSCLC
HS 578T breast = system: HS 578T breast
HT29 colon = system: HT29 colon
IGROV1 ovarian = system: IGROV1 ovarian
KM12 colon = system: KM12 colon
LOX IMVI melanoma = system: LOX IMVI melanoma
M14 melanoma = system: M14 melanoma
MALME-3M melanoma = system: MALME-3M melanoma
MCF7 breast = system: MCF7 breast
MDA-MB-231 breast = system: MDA-MB-231 breast
MDA-MB-435 melanoma = system: MDA-MB-435 melanoma
MDA-MB-468 breast = system: MDA-MB-468 breast
MOLT-4 leukemia = system: MOLT-4 leukemia
NCI-H226 lung = system: NCI-H226 lung
NCI-H23 lung = system: NCI-H23 lung
NCI-H322M lung = system: NCI-H322M lung
NCI-H460 NSCLC = system: NCI-H460 NSCLC
NCI-H522 lung = system: NCI-H522 lung
NCI/ADR-RES ovarian = system: NCI/ADR-RES ovarian
OVCAR-3 ovarian = system: OVCAR-3 ovarian
OVCAR-4 ovarian = system: OVCAR-4 ovarian
OVCAR-5 ovarian = system: OVCAR-5 ovarian
OVCAR-8 ovarian = system: OVCAR-8 ovarian
PC-3 prostate = system: PC-3 prostate
RPMI-8226 leukemia = system: RPMI-8226 leukemia
RXF 393 renal = system: RXF 393 renal
SF-268 CNS = system: SF-268 CNS
SF-295 CNS = system: SF-295 CNS
SF-539 CNS = system: SF-539 CNS
SK-MEL-28 melanoma = system: SK-MEL-28 melanoma
SK-MEL-5 melanoma = system: SK-MEL-5 melanoma
SK-OV-3 ovarian = system: SK-OV-3 ovarian
SN12C renal = system: SN12C renal
SNB-19 CNS = system: SNB-19 CNS
SNB-75 CNS = system: SNB-75 CNS
SR leukemia = system: SR leukemia
SW-620 colon = system: SW-620 colon
T-47D breast = system: T-47D breast
TK-10 renal = system: TK-10 renal
U251 glioblastoma = system: U251 glioblastoma
UACC-257 melanoma = system: UACC-257 melanoma
UACC-62 melanoma = system: UACC-62 melanoma
UO-31 renal = system: UO-31 renal

c1cc(CN2CCCNCCNCCCNCC2)ccc1CN1CCCNCCNCCCNCC1
GI50 (786-0 renal): > 100 µM
TGI (786-0 renal): > 100 µM
GI50 (A498 renal): > 100 µM
TGI (A498 renal): > 100 µM
GI50 (A549 NSCLC): > 100 µM
TGI (A549 NSCLC): > 100 µM
GI50 (ACHN renal): > 100 µM
TGI (ACHN renal): > 100 µM
GI50 (BT-549 breast): > 100 µM
TGI (BT-549 breast): > 100 µM
GI50 (CAKI-1 renal): > 100 µM
TGI (CAKI-1 renal): > 100 µM
GI50 (CCRF-CEM leukemia): > 100 µM
TGI (CCRF-CEM leukemia): > 100 µM
GI50 (COLO 205 colon): > 100 µM
TGI (COLO 205 colon): > 100 µM
GI50 (DU-145 prostate): > 100 µM
TGI (DU-145 prostate): > 100 µM
GI50 (EKVX NSCLC): > 100 µM
TGI (EKVX NSCLC): > 100 µM
GI50 (HCC-2998 colon): > 100 µM
TGI (HCC-2998 colon): > 100 µM
GI50 (HCT-116 colon): > 100 µM
TGI (HCT-116 colon): > 100 µM
GI50 (HCT-15 colon): > 100 µM
TGI (HCT-15 colon): > 100 µM
GI50 (HL-60(TB) leukemia): > 100 µM
TGI (HL-60(TB) leukemia): > 100 µM
GI50 (HOP-62 NSCLC): > 100 µM
TGI (HOP-62 NSCLC): > 100 µM
GI50 (HOP-92 NSCLC): > 100 µM
TGI (HOP-92 NSCLC): > 100 µM
GI50 (HS 578T breast): > 100 µM
TGI (HS 578T breast): > 100 µM
GI50 (HT29 colon): > 100 µM
TGI (HT29 colon): > 100 µM
GI50 (IGROV1 ovarian): > 100 µM
TGI (IGROV1 ovarian): > 100 µM
GI50 (KM12 colon): > 100 µM
TGI (KM12 colon): > 100 µM
GI50 (LOX IMVI melanoma): > 100 µM
TGI (LOX IMVI melanoma): > 100 µM
GI50 (M14 melanoma): > 100 µM
TGI (M14 melanoma): > 100 µM
GI50 (MALME-3M melanoma): > 100 µM
TGI (MALME-3M melanoma): > 100 µM
GI50 (MCF7 breast): > 100 µM
TGI (MCF7 breast): > 100 µM
GI50 (MDA-MB-231 breast): > 100 µM
TGI (MDA-MB-231 breast): > 100 µM
GI50 (MDA-MB-435 melanoma): > 100 µM
TGI (MDA-MB-435 melanoma): > 100 µM
GI50 (MDA-MB-468 breast): > 100 µM
TGI (MDA-MB-468 breast): > 100 µM
GI50 (MOLT-4 leukemia): > 100 µM
TGI (MOLT-4 leukemia): > 100 µM
GI50 (NCI-H226 lung): > 100 µM
TGI (NCI-H226 lung): > 100 µM
GI50 (NCI-H23 lung): > 100 µM
TGI (NCI-H23 lung): > 100 µM
GI50 (NCI-H322M lung): > 100 µM
TGI (NCI-H322M lung): > 100 µM
GI50 (NCI-H460 NSCLC): > 100 µM
TGI (NCI-H460 NSCLC): > 100 µM
GI50 (NCI-H522 lung): > 100 µM
TGI (NCI-H522 lung): > 100 µM
GI50 (NCI/ADR-RES ovarian): > 100 µM
TGI (NCI/ADR-RES ovarian): > 100 µM
GI50 (OVCAR-3 ovarian): > 100 µM
TGI (OVCAR-3 ovarian): > 100 µM
GI50 (OVCAR-4 ovarian): > 100 µM
TGI (OVCAR-4 ovarian): > 100 µM
GI50 (OVCAR-5 ovarian): > 100 µM
TGI (OVCAR-5 ovarian): > 100 µM
GI50 (OVCAR-8 ovarian): > 100 µM
TGI (OVCAR-8 ovarian): > 100 µM
GI50 (PC-3 prostate): > 100 µM
TGI (PC-3 prostate): > 100 µM
GI50 (RPMI-8226 leukemia): > 100 µM
TGI (RPMI-8226 leukemia): > 100 µM
GI50 (RXF 393 renal): > 100 µM
TGI (RXF 393 renal): > 100 µM
GI50 (SF-268 CNS): > 100 µM
TGI (SF-268 CNS): > 100 µM
GI50 (SF-295 CNS): > 100 µM
TGI (SF-295 CNS): > 100 µM
GI50 (SF-539 CNS): > 100 µM
TGI (SF-539 CNS): > 100 µM
GI50 (SK-MEL-28 melanoma): > 100 µM
TGI (SK-MEL-28 melanoma): > 100 µM
GI50 (SK-MEL-5 melanoma): > 100 µM
TGI (SK-MEL-5 melanoma): > 100 µM
GI50 (SK-OV-3 ovarian): > 100 µM
TGI (SK-OV-3 ovarian): > 100 µM
GI50 (SN12C renal): > 100 µM
TGI (SN12C renal): > 100 µM
GI50 (SNB-19 CNS): > 100 µM
TGI (SNB-19 CNS): > 100 µM
GI50 (SNB-75 CNS): > 100 µM
TGI (SNB-75 CNS): > 100 µM
GI50 (SR leukemia): > 100 µM
TGI (SR leukemia): > 100 µM
GI50 (SW-620 colon): > 100 µM
TGI (SW-620 colon): > 100 µM
GI50 (T-47D breast): > 100 µM
TGI (T-47D breast): > 100 µM
GI50 (TK-10 renal): > 100 µM
TGI (TK-10 renal): > 100 µM
GI50 (U251 glioblastoma): > 100 µM
TGI (U251 glioblastoma): > 100 µM
GI50 (UACC-257 melanoma): > 100 µM
TGI (UACC-257 melanoma): > 100 µM
GI50 (UACC-62 melanoma): > 100 µM
TGI (UACC-62 melanoma): > 100 µM
GI50 (UO-31 renal): > 100 µM
TGI (UO-31 renal): > 100 µM
